{"source": "patent US9556167B2", "about": "“TLR-agonist-conjugated antibody recruiting molecules (TLR-ARMs)” (YALE UNIVERSITY, priority 2012, dated 2017)", "origin": "cited, not measured here", "key": {"[1]": {"test_system": "advanced prostate cancer patients"}, "[2]": {"test_system": "aggressive end-stage prostate cancer"}}, "data": [{"smiles": "CC(=O)O[C@@]12CO[C@@H]1C[C@H](O)[C@@]1(C)C(=O)[C@H](O)C3=C(C)[C@@H](OC(=O)[C@H](O)[C@@H](NC(=O)OC(C)(C)C)c4ccccc4)C[C@@](O)([C@@H](OC(=O)c4ccccc4)[C@H]21)C3(C)C", "note": "[Taxotere]", "values": [{"measurement": "prolongation of life on average", "setting": "[1]", "result": 2.5, "unit": "months"}]}, {"smiles": "CC(=O)O[C@H]1CC[C@@]2(C)C(=CC[C@@H]3[C@@H]2CC[C@]2(C)C(c4cccnc4)=CC[C@@H]32)C1", "note": "[abiraterone acetate]", "values": [{"measurement": "patients with reduced PSA levels and tumor sizes", "setting": "[2]", "result": "≤ 70 % of patients"}]}]}
